Assay results as given in US20210024507A1, “Compounds” (Step Pharma S.A.S., priority 2018, published 2021).

What was measured:
[1] = target: T1, human CTPS1 (Homo sapiens, UniProt P17812); experiment: Human CTPS1 enzyme inhibition (ADP-Glo Max assay); type: biochemical; conditions: human full length CTPS1, 25° C., read-out: CTPS1 (Human CTPS1 Enzyme Inhibition, IC50 grouped by potency range)
T1 construct: purchased Proteros biostructures GmbH
T1 sequence (P17812 1-591): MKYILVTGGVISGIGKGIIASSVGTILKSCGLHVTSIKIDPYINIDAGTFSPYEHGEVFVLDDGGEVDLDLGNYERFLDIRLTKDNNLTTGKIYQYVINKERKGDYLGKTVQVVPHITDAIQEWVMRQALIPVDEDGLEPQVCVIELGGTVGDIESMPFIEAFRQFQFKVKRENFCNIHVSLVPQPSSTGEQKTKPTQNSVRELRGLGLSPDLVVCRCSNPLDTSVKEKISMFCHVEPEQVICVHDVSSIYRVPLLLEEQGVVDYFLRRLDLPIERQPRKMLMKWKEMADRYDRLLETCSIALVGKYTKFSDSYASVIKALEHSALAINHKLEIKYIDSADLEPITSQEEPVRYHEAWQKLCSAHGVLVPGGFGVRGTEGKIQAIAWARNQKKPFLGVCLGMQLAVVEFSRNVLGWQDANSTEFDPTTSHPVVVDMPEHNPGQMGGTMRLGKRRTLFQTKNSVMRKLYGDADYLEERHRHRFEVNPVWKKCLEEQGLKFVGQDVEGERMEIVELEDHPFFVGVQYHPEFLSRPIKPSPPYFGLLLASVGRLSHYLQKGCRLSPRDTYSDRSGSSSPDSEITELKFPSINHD
Procedure: The enzyme inhibitory activities of compounds invented against the target of interest were determined using the ADP-GIoTM Max assay (Promega, UK). Assays for human CTPS1 were performed in lx assay buffer containing 50mM Tris, 10mM MgCl2, 0.01% Tween-20, pH to 8.0 accordingly. Finally, immediately before use, L-cysteine was added to the lx assay buffer to a final concentration of 2mM. All reagents are from Sigma-Aldrich unless specified otherwise. Human full length active C-terminal FLAG-Hiss-tag CTPS1 (UniProtKB - P17812, CTPS[1-591]-[…]) was obtained from Proteros biostructures GmbH.
Assay Procedure 3× human CTPS1 protein was prepared in lx assay buffer to the final working protein concentration required for the reaction. A 2uL volume per well of 3x human CTPS1 protein was mixed with 2uL per well of 3× test compound (compound prepared in lx assay buffer to an appropriate final 3× compound concentration respective to the concentration response curve designed for the compounds under test) for 10 minutes at 25° C. The enzymatic reaction was then initiated by addition of a 2uL per well volume of a pre-mixed substrate mix (UltraPure ATP from ADP-GIo™ Max kit (0.31mM), GTP (0.034mM), UTP (0.48mM) and L-glutamine (0.186mM)) and the mixture was incubated for an appropriate amount of time within the determined linear phase of the reaction at 25° C. under sealed plate conditions with constant agitation at 500 revolutions per minute (rpm). ADP-GIo™ Max reagent was added for 60 minutes ([…] per well) and subsequently ADP-GIo™ Max development reagent was added for 60 minutes (12uL per well) prior to signal detection in a microplate reader (EnVision® Multilabel Reader, Perkin Elmer). Following each reagent addition over the course of the assay, assay plates were pulse centrifuged for 30 seconds at 500rpm.
In all cases, the enzyme converts ATP to ADP and the ADP-GIo™ Max reagent subsequently depletes any remaining endogenous ATP in the reaction system. The ADP-GIo™ Max detection reagent converts the ADP that has been enzymatically produced back into ATP and using ATP as a substrate together with luciferin for the enzyme luciferase, light is generated which produces a detectable luminescence. […] The percentage inhibition produced by each concentration of compound was calculated using the equation shown below: […]
(§1) Percentage inhibition was then plotted against compound concentration, and the 50% inhibitory concentration (IC50) was determined from the resultant concentration-response curve.

[2] = system: human CTPS1; experiment: RapidFire/MS-based enzyme selectivity assay, human CTPS1; type: biochemical; conditions: calculated from the CTPS1 and CTPS2 IC50 values
Procedure: The enzyme inhibitory activities against each target isoform of interest may be determined for the compounds of the invention using an optimised RapidFire high-throughput mass spectrometry (RF/MS) assay format. RF/MS assays for both human CTPS1 and CTPS2 may be performed in assay buffer consisting of 50mM HEPES (Merck), 20mM MgCl2, 5mM KCI, 1mM DTT, 0.01% Tween-20, pH to 8.0 accordingly. Human full-length active C-terminal FLAG-His-tag CTPS1 (UniProtKB - P17812, CTPS[1-591]-[…]) may be obtained from Proteros biostructures GmbH. Human full length active C-terminal FLAG-His-Avi tagged CTPS2 (UniProtKB-Q9NRF8, CTPS2 [1-586]- […]) may be obtained from Harker Bio.
Human CTPS (1 or 2) protein may be prepared in lx assay buffer to the final working protein concentration required for the reaction. A 2uL volume per well of 2× CTPS (1 or 2) protein may be mixed with 40nL of compound using acoustic (ECHO) delivery and incubated for 10 minutes at 25° C. Each isoform enzymatic reaction may be subsequently initiated by addition of 2uL per well of a 2× substrate mix in assay buffer. For hCTPS1: ATP (0.3mM), UTP (0.2mM), GTP (0.07mM) and L-glutamine (0.1mM). For hCTPS2: ATP (0.1mM), UTP (0.04mM), GTP (0.03mM) and L-glutamine (0.1mM). Each mixture may be incubated for an appropriate amount of time per isoform within the determined linear phase of the reaction at 25° C. A 60uL volume of stop solution (1% formic acid with 0.5uM ^13C9-^15N3-CTP in H2O) may be added and the plate immediately heat-sealed and centrifuged for 10 minutes at 4,000rpm. Following centrifugation, plates may be loaded onto the Agilent RapidFire microfluidic solid phase extraction system coupled to an AP14000 triple quadrupole mass spectrometer (RF/MS) for analysis.
In all cases, the enzyme converts UTP to CTP. Highly specific and sensitive multiple reaction monitoring (MRM) MS methods may be optimised for the detection of the enzymatic reaction product, CTP, and the stable isotope labelled product standard ^13C9-^15N3-CTP. Readout for data analysis may be calculated as the ratio between the peak area of the product CTP and the internal standard ^13C9-^15N3-CTP. For data reporting, the following equation may be used:
[formula] (R=ratio/readout, P=product signal area, IS=internal standard signal area)
For each screening plate, the means of the negative (DMSO) and positive control values were used for the calculation of the respective assay window (S/B) and Z′ values. The median of the respective control values was used for calculation of percent inhibition according to the following equation:
[formula] (I=Inhibition, Rneg=median of negative control readout values, Rpos=median of positive control readout values, Rsample=sample readout value)
as §1
Fold selectivity between CTPS1 and CTPS2 was subsequently calculated according to the following equation: […]

SMILES	IC50 [1] [nM]	Selectivity (fold selectivity between CTPS1 and CTPS2) [2]
CCOc1cncc(-c2ccc(NC(=O)C(F)(CC)c3ccnc(NS(=O)(=O)C4CC4)n3)nc2)n1 (single isomer, unassigned) [P113, 2-(2-(cyclopropanesulfonamido)pyrimidin-4-yl)-N-(5-(6-ethoxypyrazin-2-yl)pyridin-2-yl)-2-fluorobutanamide]	≤ 100	+ (2-30 fold (+))
CCOc1cncc(-c2ccc(NC(=O)C(F)(CC)c3cncc(NS(=O)(=O)C4CC4)n3)nc2)n1 (single isomer, unassigned) [P206, 2-(6-(cyclopropanesulfonamido)pyrazin-2-yl)-N-(5-(6-ethoxypyrazin-2-yl)pyridin-2-yl)-2-fluorobutanamide]	≤ 100	+++ (>60 fold (+++))
CCOc1cncc(-c2ccc(NC(=O)C(F)(CC)c3cncc(NS(=O)(=O)C4CC4)n3)nc2)n1 (single isomer, unassigned) [P207, 2-(6-(cyclopropanesulfonamido)pyrazin-2-yl)-N-(5-(6-ethoxypyrazin-2-yl)pyridin-2-yl)-2-fluorobutanamide]	≤ 100	+ (2-30 fold (+))
CCC(C(=O)Nc1ccc(-c2cncc(C(F)(F)F)n2)cn1)c1ccnc(NS(=O)(=O)C2CC2)n1 (centres unmarked) [P87, 2-(2-(cyclopropanesulfonamido)pyrimidin-4-yl)-N-(5-(6-(trifluoromethyl)pyrazin-2-yl)pyridin-2-yl)butanamide]	≤ 100	++ (>30-60 fold (++))
CCOc1cncc(-c2ccc(NC(=O)C(CC)c3ccnc(NS(=O)(=O)C4CC4)n3)nc2)n1 (centres unmarked) [P88, 2-(2-(cyclopropanesulfonamido)pyrimidin-4-yl)-N-(5-(6-ethoxypyrazin-2-yl)pyridin-2-yl)butanamide]	≤ 100	+++ (>60 fold (+++))
CCC(C(=O)Nc1ccc(-c2cncc(OCC(F)(F)F)n2)cc1F)c1ccnc(NS(=O)(=O)C2CC2)n1 (centres unmarked) [P98, 2-(2-(cyclopropanesulfonamido)pyrimidin-4-yl)-N-(2-fluoro-4-(6-(2,2,2-trifluoroethoxy)pyrazin-2-yl)phenyl)butanamide]	≤ 100	+++ (>60 fold (+++))
CCC(C(=O)Nc1ccc(-c2cncc(C(F)(F)F)n2)cc1)c1ccnc(NS(=O)(=O)C2CC2)n1 (centres unmarked) [P103, 2-(2-(cyclopropanesulfonamido)pyrimidin-4-yl)-N-(4-(6-(trifluoromethyl)pyrazin-2-yl)phenyl)butanamide]	100 to 1000	+ (2-30 fold (+))
CCOc1cncc(-c2ccc(NC(=O)C(CC)c3ccnc(NS(=O)(=O)C4CC4)n3)cc2)n1 (centres unmarked) [P105, 2-(2-(cyclopropanesulfonamido)pyrimidin-4-yl)-N-(4-(6-ethoxypyrazin-2-yl)phenyl)butanamide]	≤ 100	++ (>30-60 fold (++))

Now from value to compound:

IC50 [1] [nM]	Selectivity (fold selectivity between CTPS1 and CTPS2) [2]	SMILES
≤ 100	++ (>30-60 fold (++))	CCOc1cncc(-c2ccc(NC(=O)C(F)(CC)c3ccnc(NS(=O)(=O)C4CC4)n3)nc2)n1 (racemic) [P112, 2-(2-(Cyclopropanesulfonamido)pyrimidin-4-yl)-N-(5-(6-ethoxypyrazin-2-yl)pyridin-2-yl)-2-fluorobutanamide]
≤ 100	+++ (>60 fold (+++))	CCOc1cncc(-c2ccc(NC(=O)C(F)(CC)c3ccnc(NS(=O)(=O)C4CC4)n3)nc2)n1 (single isomer, unassigned) [P114, 2-(2-(cyclopropanesulfonamido)pyrimidin-4-yl)-N-(5-(6-ethoxypyrazin-2-yl)pyridin-2-yl)-2-fluorobutanamide]
100 to 1000	+ (2-30 fold (+))	CCC(C(=O)Nc1ccc(-c2cncc(Cl)c2)cc1)c1ccnc(NS(=O)(=O)C2CC2)n1 (centres unmarked) [P1, N-(4-(5-Chloropyridin-3-yl)phenyI)-2-(2-(cyclopropanesulfonamido)pyrimidin-4-yl)butanamide]
≤ 100	+++ (>60 fold (+++))	CCC(C(=O)Nc1ccc(-c2cncc(OC(C)C)n2)cn1)c1ccnc(NS(=O)(=O)C2CC2)n1 (centres unmarked) [P89, 2-(2-(cyclopropanesulfonamido)pyrimidin-4-yl)-N-(5-(6-isopropoxypyrazin-2-yl)pyridin-2-yl)butanamide]
≤ 100	+ (2-30 fold (+))	CCC(C(=O)Nc1ccc(-c2cncc(OC)n2)cc1F)c1ccnc(NS(=O)(=O)C2CC2)n1 (centres unmarked) [P95, 2-(2-(cyclopropanesulfonamido)pyrimidin-4-yl)-N-(2-fluoro-4-(6-methoxypyrazin-2-yl)phenyl)butanamide]
≤ 100	+ (2-30 fold (+))	CCOc1cncc(-c2ccc(NC(=O)C(CC)c3ccnc(NS(=O)(=O)C4CC4)n3)c(F)c2)n1 (centres unmarked) [P96, 2-(2-(cyclopropanesulfonamido)pyrimidin-4-yl)-N-(4-(6-ethoxypyrazin-2-yl)-2-fluorophenyl)butanamide]
	+ (2-30 fold (+))	CC(C)(NC(=O)c1ccc(-c2cncc(C(F)(F)F)n2)cc1)c1cncc(NS(=O)(=O)C2CC2)n1 [P222, N-(2-(6-(cyclopropanesulfonamido)pyrazin-2-yl)propan-2-yl)-4-(6-(trifluoromethyl)pyrazin-2-yl)benzamide]
